Test results taken from PubChem BioAssay (NCI).
Several values for one entry are separate records, joined by “and”; a condition that tells them apart may be missing. Equal values may be shown once.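 Grown in 96-well plates, cells were treated for 48 hours with each compound at five concentrations. Insufficient inhibition: endpoint recorded as highest concentration tested. The concentration for 50% growth inhibition is given as GI50. Definition used: TGI = concentration required for complete inhibition of growth.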

Legend:
Assay in all cases: NCI-60 cell line screen, 48 h
[1] = system: 786-0 renal
[2] = system: RPMI-8226 leukemia
[3] = system: A498 renal
[4] = system: A549 NSCLC
[5] = system: NCI-H460 lung
[6] = system: OVCAR-4 ovarian
[7] = system: HL-60(TB) leukemia
[8] = system: TK-10 renal
[9] = system: LOX IMVI melanoma
[10] = system: HCT-15 colon

SMILES	GI50 [1]	TGI [1]	GI50 [2]	TGI [2]	GI50 [3]	TGI [3]	GI50 [4]	TGI [4]	GI50 [5]	TGI [5]	GI50 [6]	TGI [6]	GI50 [7]	TGI [7]	GI50 [8]	TGI [8]	GI50 [9]	TGI [9]	GI50 [10]	TGI [10]
C=C1C(=O)[C@@]23CC1C(O)[C@@H](OC(C)=O)[C@@H]2C1(C)C(OC(C)=O)C[C@@H](OC(C)=O)C(C)(C)[C@@H]1C[C@H]3OC(C)=O (stereo not given in full)	1.81 µg/mL	> 10 µM and 3.97 µg/mL	1.55 µM and 0.543 µg/mL	4.28 µM and 3.5 µg/mL	16.3 µg/mL	> 10 µM and 30.6 µg/mL	> 10 µM and 13.9 µg/mL	> 10 µM and 30 µg/mL	> 10 µM and 7.27 µg/mL	> 10 µM and 19.4 µg/mL	> 10 µM and 8.36 µg/mL	> 10 µM and 22.1 µg/mL	1.89 µM and 0.529 µg/mL	3.67 µM and 3 µg/mL	> 10 µM and 2.29 µg/mL	> 10 µM and 5.15 µg/mL	1.82 µg/mL	> 10 µM and 3.31 µg/mL	2.69 µg/mL	> 10 µM and 8.61 µg/mL
COC(=O)c1c2c(c(C)[n+]([O-])c1C)C(=O)C=C(NCc1ccc(OC)cc1)C2=O	5.48 µM	23.3 µM	2.03 µM	9.26 µM	1.59 µM	6.21 µM	2.21 µM	6.44 µM	1.29 µM	4.69 µM	0.655 µM	1.79 µM	0.794 µM	2.21 µM	8.3 µM	25.8 µM	0.911 µM	3.77 µM	0.962 µM	4.19 µM
c1cc(OCCN2CCCCC2)ccc1CNc1ccc2nc(CCC3CCCCC3)[nH]c2c1	1.65 µM	3.55 µM	1.49 µM	3.71 µM	1.67 µM	4.08 µM	2.54 µM	7.06 µM	1.94 µM	3.97 µM	2.8 µM	12.3 µM	1.79 µM	3.78 µM	2.9 µM	8.26 µM	1.75 µM	3.19 µM	1.58 µM	3.89 µM
COc1ccc2cc3[n+](cc2c1OC)CCc1cc(O)c(O)cc1-3	–	> 100 µM	–	> 100 µM	–	> 100 µM	–	> 100 µM	–	> 100 µM	–	> 100 µM	–	> 100 µM	–	> 100 µM	–	> 100 µM	–	> 100 µM
